Experimental findings from BindingDB's records for doi:10.7270/Q20V8B7J (Nmmlsc, 2009) are described below.

For the test, the target named is Ras-related C3 botulinum toxin substrate 1 (Mus musculus, UniProt P63001). The test can be described thus: activated mutant Rac1 GTP binding inhibitors, SAR follow-up, biochemical, additional analogs, multiplex bead flow cytometry (AID 2039). On the technique in general: A flow cytometer gives signals particle by particle.
The compound `O=C1NC(=S)N/C1=C1\C(=O)Nc2ccccc21` [(3Z)-3-(5-oxo-2-sulfanylideneimidazolidin-4-ylidene)-1H-indol-2-one] showed a Ki of 0.64 µM.
On to `O=C1N=c2c(F)cccc2=C1c1[nH]c2ccccc2c1NO` [7-fluoro-3-[3-(hydroxyamino)-1H-indol-2-yl]-2-indolone], for which the Ki was found to be 2.87 µM.
Next, `O=C1N=c2ccc(Br)cc2=C1c1[nH]c2ccccc2c1NO` [5-bromanyl-3-[3-(oxidanylamino)-1H-indol-2-yl]indol-2-one]: 2.98 µM.
With `O=C1NC(=O)/C(=C2/C(=O)Nc3ccccc32)N1` the figure was 1.06 µM; with `O=C1Nc2ccc(Br)cc2C1=C1Nc2ccccc2C1=O`, 1.11 µM.
With `O=C1Nc2c(Br)cccc2C1=C1Nc2ccccc2C1=O` the figure was 2.51 µM.

The term Ki denotes the dissociation constant of the complex between target and ligand, obtained from inhibition or displacement. The low end stands for higher affinity, the high end for lower affinity.
